From patent US8211714B2, “Characterization of molecules” (Analiza, Inc., priority 2001, dated 2012)

Columns and labels:
bovine β-lactoglobulin = molecular target: T1, bovine β-lactoglobulin (Bos taurus, UniProt P02754); experiment: Partitioning of bovine β-lactoglobulin with binding partners in aqueous two-phase systems; details: for Partition coefficient K-value, Dex-Ficoll system: 8.88 wt.% Dextran-64, 12.86 wt.% Ficoll-400, 0.01 M sodium phosphate buffer pH 8.6; for Partition coefficient K-value, Dex-Ficoll system / Partition coefficient K-value, Dex-Ficoll-NaSCN system / Partition coefficient K-value, Dex-PEG system: protein:binding partner 1:1; for Partition coefficient K-value, Dex-Ficoll-NaSCN system: 10.98 wt.% Dextran-64, 15.95 wt.% Ficoll-400, […] NaSCN, 0.01 M sodium phosphate buffer pH 8.6; for Partition coefficient K-value, Dex-PEG system: 12.33 wt.% Dextran-64, 6.05 wt.% PEG-6000, 0.15M NaCl, 0.01 M sodium phosphate buffer pH 7.4; for Partition coefficient K-value, PEG/Phosphate system: 13.75 wt.% PEG-600, 21.00 wt.% sodium/potassium phosphate buffer pH 6.8, protein:binding partner molecular ratio 1:1; for effect of binding on the protein K-value: all the systems used
T1 sequence (P02754 17-178): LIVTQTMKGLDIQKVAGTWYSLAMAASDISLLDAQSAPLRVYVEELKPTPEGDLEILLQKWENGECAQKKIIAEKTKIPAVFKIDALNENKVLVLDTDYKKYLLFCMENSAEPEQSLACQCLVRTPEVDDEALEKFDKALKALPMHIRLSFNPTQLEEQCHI
Experimental: β-Lactoglobulin from bovine milk, retinol, nitrophenyl phosphate and bromoethanol were purchased from Sigma Chemical Company (St. Louis, Mo., USA) and used without further purification. A stock solution of β-lactoglobulin in water was prepared at a concentration of 10.0 mg/ml. Nitrophenyl phosphate, retinol, and bromoethanol were dissolved in the protein stock solutions in the molecular ratios as indicated in Table 1. These protein/binding partner solutions were subjected to partitioning in a series of different aqueous two-phase systems, also as indicated below.
The aqueous two-phase system contained 13.75 wt. % PEG-600 (molecular weight of about 600) and 21.00 wt. % sodium/potassium phosphate buffer (pH 6.8). Each system was prepared by mixing the appropriate amounts of stock polymer and buffer solutions dispensed by liquid handling workstation Hamilton ML-2200 into a 1.2 mL microtube. A total volume of 800 μL was dispensed to the microtube. A varied amount (40, 80, 120, 160, and 200 μL) of the β-lactoglobulin solution or that of a mixture of a given ratio and the corresponding amount (160, 120, 80, 40, and 0.0 μl) of water were added to a system. The ratio between the volumes of the two phases of each system of a final volume of 1.00 mL was as 1:1. The system was shaken vigorously and then centrifuged for 30 min. at about 4000 rpm to speed resolution of the two phases. Tubes were then taken from the centrifuge, aliquots of a given volume (100 μl for direct spectrophotometric analysis and 150 μl for fluorescence analysis) from the top and the bottom phases were withdrawn in duplicate. Each aliquot was diluted, mixed with appropriate reagents, and used for analyzed as described below.
The other aqueous two-phase system contained 8.88 wt. % Dextran-64 (molecular weight of about 64,000), 12.86 wt. % Ficoll-400 (molecular weight of about 400,000) and 0.01 M sodium phosphate buffer (pH 8.6). Each system was prepared by mixing the appropriate amounts of stock polymer and buffer solutions dispensed by liquid handling workstation Hamilton ML-2200 into a microtube of a total volume of 1.2 mL up to a total volume of a system of 820 μL. A varied amount (40, 80, 120, and 160 μl) of the β-lactoglobulin solution or that of a mixture of a given ratio and the corresponding amount (140, 100, 60, and 20 μl) of water were added to each system. The ratio between the volumes of the two phases of each system of a final volume of 1.00 mL was as 1:1. The system was shaken vigorously and centrifuged for 30 min. at about 4000 rpm to speed the resolution of the phases. Tubes were taken out of the centrifuge, and aliquots of a given volume (100 μl for direct spectrophotometric analysis and 150 μl for fluorescence analysis) from the top and the bottom phases were withdrawn in duplicate and each diluted and mixed with appropriate reagents as indicated below and used for further analysis performed as described below.
The other aqueous two-phase system contained 10.98 wt. % Dextran-64 (molecular weight of about 64,000), 15.95 wt. % Ficoll-400 (molecular weight of about 400,000), 0.24M NaSCN, and 0.01 M sodium phosphate buffer (pH 8.6). Each system was prepared by mixing the appropriate amounts of stock polymer, salt, and buffer solutions dispensed by liquid handling workstation Hamilton ML-2200 into a microtube of a total volume of 1.2 mL up to a total volume of a system of 920 μL. A varied amount (20, 40, 60, and 80 μl) of the β-lactoglobulin solution or that of a mixture of a given ratio and the corresponding amount (60, 40, 20, and 0 μl) of water were added to a system. The ratio between the volumes of the two phases of each system of a final volume of 1.00 mL was as 1:1. The system was vigorously shaken and centrifuged for 30 min. at about 4000 rpm in a centrifuge with a bucket rotor to speed the phase settling.

hen egg white lysozyme = molecular target: T2, hen egg white lysozyme (Gallus gallus, UniProt P00698); experiment: Partitioning of hen egg white lysozyme and its mixtures with binding partners in aqueous two-phase systems; format: physicochemical; details: for Partition coefficient K-value, Dex-PEG system: pH 7.4; for Partition coefficient K-value, Dex-Ficoll system / Partition coefficient K-value, Dex-Ficoll-Na2SO4 system: pH 8.6
T2 construct: Lysozyme from hen egg white; purchased Sigma Chemical Company (St. Louis, Mo., USA); host or cells: isolated from hen egg white
Experimental: Glucose and N-acetyl-D-glucosamine were purchased from USB Corporation (Cleveland, Ohio, USA) and used without further purification. Stock solutions of lysozyme in water were prepared at a concentration of 5.0 mg/ml. N,N′-Diacetylchitobiose and N,N′,N″-triacetylchitotriose were dissolved at a concentration of 10 mg/ml and mixed with the protein solution in ratios appropriate to provide protein:ligand molecular ratios of 1:1. Stock solutions of lysozyme and of the lysozyme mixtures with ligands were added to an aqueous two-phase system as described below.

[1] = Partitioning of human, bovine and porcine insulin in aqueous two-phase systems; format: physicochemical; details: pH 7.4
Experimental: Human recombinant insulin was purchased from ICN Biomedicals Inc. (Aurora, Ohio, USA), bovine and porcine insulins were purchased from Calbiochem Corporation (San Diego, Calif., USA) and used without further purification. […] Stock solutions of all insulins in 0.009M HCl were prepared and titrated with 0.01M NaOH to pH 6.0 with the final protein concentration of ca. 1.0 mg/ml. Stock solution of human insulin, stock solution of porcine insulin, and stock solution of bovine insulin were added to an aqueous two-phase system as described below.

T2 sequence (P00698 19-147): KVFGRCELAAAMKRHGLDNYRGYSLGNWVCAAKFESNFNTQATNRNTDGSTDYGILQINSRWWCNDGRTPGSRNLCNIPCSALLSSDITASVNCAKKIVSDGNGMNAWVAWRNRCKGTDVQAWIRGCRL

| Partition coefficient K-value, PEG-3350-Phosphate system (hen egg white lysozyme) | Partition coefficient K-value, Dex-PEG system (hen egg white lysozyme) | Partition coefficient K-value, Dex-Ficoll system (hen egg white lysozyme) | Partition coefficient K-value, Dex-Ficoll-Na2SO4 system (hen egg white lysozyme) | Compound | Partition coefficient K-value, Dex-Ficoll system (bovine β-lactoglobulin) | Partition coefficient K-value, Dex-Ficoll-NaSCN system (bovine β-lactoglobulin) | Partition coefficient K-value, Dex-PEG system (bovine β-lactoglobulin) | Partition coefficient K-value, PEG/Phosphate system (bovine β-lactoglobulin) | also measured |
| --- | --- | --- | --- | --- | --- | --- | --- | --- | --- |
|  |  |  |  | OCCBr | 0.848 ± 0.009 | 0.486 ± 0.005 | 0.183 ± 0.001 | 1.904 ± 0.013 | effect of binding on the protein K-value (bovine β-lactoglobulin): decreases |
|  |  |  |  | O=[N+]([O-])c1ccc(OP(=O)(O)O)cc1 | 0.823 ± 0.018 | 0.420 ± 0.001 | 0.103 ± 0.001 | 1.714 ± 0.012 | effect of binding on the protein K-value (bovine β-lactoglobulin): decreases |
| 0.461 ± 0.006 | 2.033 ± 0.052 | 0.803 ± 0.004 | 1.106 ± 0.007 | CC(=O)N[C@H]1[C@H](O[C@H]2[C@H](O)[C@@H](NC(C)=O)C(O)O[C@@H]2CO)O[C@H](CO)[C@@H](O[C@@H]2O[C@H](CO)[C@@H](O)[C@H](O)[C@H]2NC(C)=O)[C@@H]1O (stereo partly drawn) [N,N′,N″-Triacetylchitotriose] |  |  |  |  |  |
| 1.311 ± 0.013 | 2.563 ± 0.032 | 0.826 ± 0.001 | 1.177 ± 0.009 | CC(=O)N[C@H]1[C@H](O[C@H]2[C@H](O)[C@@H](NC(C)=O)C(O)O[C@@H]2CO)O[C@H](CO)[C@@H](O)[C@@H]1O (stereo partly drawn) [N,N′-Diacetylchitobiose] |  |  |  |  |  |
| 2.402 ± 0.002 | 2.860 ± 0.035 | 0.818 ± 0.003 | 1.214 ± 0.010 | CC(=O)N[C@H]1C(O)O[C@H](CO)[C@@H](O)[C@@H]1O (stereo partly drawn) [N-Acetyl-D-glucosamine] |  |  |  |  |  |
|  |  |  |  | Porcine Insulin: porcine insulin (Calbiochem); differs from human insulin by Ala in position B30 |  |  |  |  | Partition coefficient K-value, Dex-Ficoll-NaCl—NaPB [1]: 1.350 ± 0.015; Partition coefficient K-value, Dex-Ficoll-NaSCN—NaPB [1]: 0.911 ± 0.006; Partition coefficient K-value, Dex-PEG-NaClO4—NaPB [1]: 0.656 ± 0.020; Partition coefficient K-value, Dex-PEG-NaSCN—NaPB [1]: 1.514 ± 0.019 |
|  |  |  |  | Retinol acetate | 0.812 ± 0.006 | 0.468 ± 0.002 | 0.196 ± 0.001 | 1.858 ± 0.016 | effect of binding on the K-value of the protein (bovine β-lactoglobulin; Dex-Ficoll system): reduces; effect of binding on the K value of the protein (bovine β-lactoglobulin; PEG-Phosphate, Dex-PEG, and Dex-Ficoll-NaSCN systems): increases |

| Compound | Partition coefficient K-value, PEG-3350-Phosphate system (hen egg white lysozyme) | Partition coefficient K-value, Dex-PEG system (hen egg white lysozyme) | Partition coefficient K-value, Dex-Ficoll system (hen egg white lysozyme) | Partition coefficient K-value, Dex-Ficoll-Na2SO4 system (hen egg white lysozyme) | Partition coefficient K-value, Dex-Ficoll system (bovine β-lactoglobulin) | Partition coefficient K-value, Dex-Ficoll-NaSCN system (bovine β-lactoglobulin) | Partition coefficient K-value, Dex-PEG system (bovine β-lactoglobulin) | Partition coefficient K-value, PEG/Phosphate system (bovine β-lactoglobulin) | also measured |
| --- | --- | --- | --- | --- | --- | --- | --- | --- | --- |
| hen egg white lysozyme: Lysozyme from hen egg white (Sigma); protein alone, row 'None' of Table 2 | 2.278 ± 0.006 | 2.728 ± 0.010 | 0.890 ± 0.007 | 1.239 ± 0.008 |  |  |  |  |  |
